{"source": "patent US20100130613A1", "about": "“ADMINISTRATION OF ADAPALENE FOR MODULATING THE EXPRESSION OF CD1d OR IL-10” (GALDERMA RESEARCH & DEVELOPMENT, priority 2007, published 2010)", "key": {"[1]": {"test_system": "CD1d", "assay": "CD1d expression in acneic skin explants, immunohistochemistry", "type": "cell-based, human", "conditions": "24 hours, control medium 0.9 (+/−0.2), p=0.034", "source_text": "(§1) Inflammatory lesions of acne: a skin biopsy (1×1.5 cm) was obtained under local anaesthesia from a superficial inflammatory lesion (papula) on the back in 8 patients suffering from moderate acne and undergoing no topical treatment (for the last two weeks) or general treatment (for the last month, or three months for isotretinoin). The fragments taken were immediately placed in culture.\n(§2) Fragments (4 mm in diameter) originating from biopsies of inflammatory skin, considered to be an inflammatory model, and of healthy skin, were incubated at 37° C. in a humid atmosphere and in the presence of 5% CO2 for 24 hours in KGM culture medium without hydrocortisone (PromoCell GmbH, Heidelberg, Germany). The culture medium was supplemented with two different concentrations of adapalene (Galderma, Sophia Antipolis, France): 10^−7 M and 10^−6 M. The culture medium alone served as control medium. […]\n(§3) The labeling intensity was quantified according to a semi-quantitative scale: none (0), weak (1), medium (2) and strong (3). For each slide, the labeling intensity was determined using a mean of three fields. […] The reading was performed by two independent investigators.\n(§4) All the results are expressed as mean +/−SEM. The statistical significance of differences from the values (by comparison to the control medium) was determined by means of the paired Wilcoxon test. […]"}, "[2]": {"test_system": "free radicals", "conditions": "background statement; cited from earlier work"}, "[3]": {"test_system": "cellular retinoic acid binding proteins", "conditions": "background statement; cited from earlier work"}, "[4]": {"target": "T1, RARβ (Homo sapiens, UniProt P10826)", "T1 sequence (P10826 1-455)": "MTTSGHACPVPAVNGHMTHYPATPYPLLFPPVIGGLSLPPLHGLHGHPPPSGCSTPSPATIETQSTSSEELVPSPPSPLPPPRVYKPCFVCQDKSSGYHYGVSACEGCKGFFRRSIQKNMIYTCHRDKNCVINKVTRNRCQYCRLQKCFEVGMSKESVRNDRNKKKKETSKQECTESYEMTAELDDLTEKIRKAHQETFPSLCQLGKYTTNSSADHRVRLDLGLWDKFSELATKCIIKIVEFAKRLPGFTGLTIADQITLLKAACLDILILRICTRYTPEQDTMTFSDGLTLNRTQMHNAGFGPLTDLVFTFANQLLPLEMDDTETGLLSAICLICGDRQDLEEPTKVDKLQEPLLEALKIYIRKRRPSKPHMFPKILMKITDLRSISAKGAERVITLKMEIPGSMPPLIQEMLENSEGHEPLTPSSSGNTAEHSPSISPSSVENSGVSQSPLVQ", "conditions": "background statement; cited from earlier work"}, "[5]": {"target": "T2, RARγ (Homo sapiens, UniProt P13631)", "T2 sequence (P13631 1-454)": "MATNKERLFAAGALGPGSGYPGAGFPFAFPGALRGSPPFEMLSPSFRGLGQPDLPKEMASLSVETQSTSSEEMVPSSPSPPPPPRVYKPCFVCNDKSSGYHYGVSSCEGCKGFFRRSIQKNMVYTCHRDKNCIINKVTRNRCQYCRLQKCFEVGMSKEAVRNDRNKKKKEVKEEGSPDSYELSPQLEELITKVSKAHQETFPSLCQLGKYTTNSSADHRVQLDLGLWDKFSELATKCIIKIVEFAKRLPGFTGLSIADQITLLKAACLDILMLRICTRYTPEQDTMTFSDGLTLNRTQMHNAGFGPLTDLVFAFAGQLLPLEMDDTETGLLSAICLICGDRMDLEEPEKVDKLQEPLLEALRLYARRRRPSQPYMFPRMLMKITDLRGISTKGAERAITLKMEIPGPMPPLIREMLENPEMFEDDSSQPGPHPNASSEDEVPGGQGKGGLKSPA", "conditions": "background statement; cited from earlier work"}, "[6]": {"test_system": "IL-10", "assay": "IL-10 expression in acneic skin explants, immunohistochemistry", "type": "cell-based, human", "conditions": "24 hours, control medium 1.9 (+/−0.4)", "source_text": "as §1, §2, §3, §4"}, "[7]": {"test_system": "IL-10", "assay": "IL-10 secretion in culture supernatants of healthy human skin explants, ELISA", "type": "cell-based", "conditions": "24 hours, control medium 17.8 pg/ml", "procedure": "(§5) Healthy human skin: fragments of healthy skin originating from 8 healthy donors were obtained from a mammary plasty (plastic surgery) or a foreskin (infant surgery).\n(§6) Fragments (4 mm in diameter) originating from biopsies of inflammatory skin, considered to be an inflammatory model, and of healthy skin, were incubated at 37° C. in a humid atmosphere and in the presence of 5% CO2 for 24 hours in KGM culture medium without hydrocortisone (PromoCell GmbH, Heidelberg, Germany). The culture medium was supplemented with two different concentrations of adapalene (Galderma, Sophia Antipolis, France): 10^−7 M and 10^−6 M. The culture medium alone served as control medium.\nAfter incubation, the explants were removed from the culture medium and were then frozen in liquid nitrogen for the immunohistochemical study. […]\n(§7) The concentrations of IL-10 were measured in the culture supernatants using a solid-phase ELISA (Enzyme Linked ImmunoSorbent Assay) sandwich kit, obtained from BioSource (International Inc, Ca, USA).\n(§8) The slides were read at 450 nm using an Emax reader (Molecular Devices, CA, USA). […]\nas §4"}, "[8]": {"test_system": "leukotrienes", "conditions": "background statement; cited from earlier work"}, "[9]": {"test_system": "IL-10", "assay": "IL-10 secretion in culture supernatants of acneic skin explants, ELISA", "type": "cell-based, human", "conditions": "24 hours, control medium 5.7 pg/ml (+/−7.1)", "source_text": "as §1, §2, §7, §8, §4"}, "[10]": {"test_system": "CD1d", "assay": "CD1d expression in healthy human skin explants, immunohistochemistry", "type": "cell-based", "conditions": "24 hours, versus control medium", "procedure": "as §5, §6\n(§9) After incubation, the explants were removed from the culture medium and were then frozen in liquid nitrogen for the immunohistochemical study. The culture supernatants were stored at −80° C. for subsequent measurement of protein secretion, by an ELISA assay technique. […]\nas §3, §4"}, "[11]": {"test_system": "IL-10", "assay": "IL-10 expression in healthy human skin explants, immunohistochemistry", "type": "cell-based", "conditions": "24 hours", "procedure": "as §5, §6, §9, §3, §4"}, "[12]": {"test_system": "polymorphonuclear neutrophils", "conditions": "background statement; cited from earlier work"}, "[13]": {"test_system": "lipoxygenase pathway", "conditions": "background statement; cited from earlier work"}, "[14]": {"test_system": "superficial inflammatory lesions", "conditions": "clinically; Millikan, Int. J. Dermatol. 2000; cited from earlier work"}}, "data": [{"smiles": "COc1ccc(-c2ccc3cc(C(=O)O)ccc3c2)cc1C12CC3CC(CC(C3)C1)C2", "note": "[adapalene, 6-[3-(1-adamantyl)-4-methoxyphenyl]-2-naphthoic acid]", "values": [{"measurement": "expression of CD1d (labeling intensity, scale 0-3, mean +/−SEM)", "setting": "[1]; 10^−6 M adapalene", "result": "1.5 (+/−0.5)"}, {"measurement": "expression of CD1d (labeling intensity, scale 0-3, mean +/−SEM)", "setting": "[1]; 10^−7 M adapalene", "result": "1.5 (+/−0.5)"}, {"measurement": "production of free radicals", "setting": "[2]", "result": "inhibits"}, {"measurement": "binding to cellular retinoic acid binding proteins", "setting": "[3]", "result": "does not, on the other hand, bind"}, {"measurement": "binding to RARβ", "setting": "[4]", "result": "binds selectively"}, {"measurement": "binding to RARγ", "setting": "[5]", "result": "binds selectively"}, {"measurement": "intensity of IL-10 expression (scale 0-3, mean +/−SEM)", "setting": "[6]; 10^−6 M adapalene, p=0.0199", "result": "0.6 (+/−0.2)"}, {"measurement": "intensity of IL-10 expression (scale 0-3, mean +/−SEM)", "setting": "[6]; 10^−7 M adapalene, p=0.024", "result": "0.9 (+/−0.2)"}, {"measurement": "secretion of IL-10 in supernatants", "setting": "[7]; 10^−6 M adapalene", "result": "No modulation"}, {"measurement": "secretion of IL-10 in supernatants", "setting": "[7]; 10^−7 M adapalene", "result": "increases the secretion of IL-10"}, {"measurement": "production of leukotrienes via the lipoxygenase pathway", "setting": "[8]", "result": "inhibits"}, {"measurement": "IL-10 level in supernatants", "setting": "[9]; 10^−6 M adapalene", "result": 4.0, "unit": "pg/mL"}, {"measurement": "IL-10 level in supernatants", "setting": "[9]; 10^−7 M adapalene", "result": 6.1, "unit": "pg/mL"}, {"measurement": "expression of CD1d in the epidermis (labeling intensity)", "setting": "[10]; 10^−6 M adapalene, p=0.035", "result": "significantly decreases"}, {"measurement": "expression of CD1d in the epidermis (labeling intensity)", "setting": "[10]; 10^−7 M adapalene, p=0.023", "result": "significantly decreases"}, {"measurement": "inhibitory effect on the expression of IL-10", "setting": "[11]; 10^−6 M adapalene, versus control medium, p=0.016", "result": "significant"}, {"measurement": "expression of IL-10 in the epidermis (labeling intensity)", "setting": "[11]; 10^−7 M and 10^−6 M adapalene, dose-dependent", "result": "significantly decreases"}, {"measurement": "chemotaxis of polymorphonuclear neutrophils", "setting": "[12]", "result": "inhibits"}, {"measurement": "oxidative metabolism of arachidonic acid via the lipoxygenase pathway", "setting": "[13]", "result": "inhibits"}, {"measurement": "clinical activity on superficial inflammatory lesions", "setting": "[14]", "result": "exhibits an activity on superficial inflammatory lesions"}]}]}
